# Tests used:
# HUVECs [1] = test: Matrigel tube formation assay (HUVECs); assay type: cell-based, human; conditions: concentrations between 1 and 100 μM, 4 h, p<0.05
# Procedure: (§1) To initially determine if SsnB inhibited pro-angiogenic cell functions, a tube formation assay with Matrigel was performed. Growth factor reduced Matrigel (BD Biosciences, Bedford, Mass.) was added to the wells of a 96 well polystyrene culture plate and incubated at 37° C. for 30 minutes. Cells (HUVECs, HCAECs, or HMVECs at passage 2 to 4) were added to each well to reach a final number of 20,000 cells per well. SsnB was added to the wells at a concentration of 1, 10, or 100 μM. Endothelial cell medium with DMSO (0.1%) was used as a vehicle control. Each group contained 4 replicates. The plates were placed in an incubator for 4 h. During the incubation, the endothelial cells formed elongated structures called cords, also known as tubes. After 4 h, neutral buffered formalin was added to fix the cells. Pictures of three non-overlapping fields were taken from each well. The lengths of single cell endothelial cords were measured with Image-Pro Plus (Media Cybernetics, Silver Spring, Md.), and the sum of tube lengths for each well was determined. The average total length and standard deviation for each group were determined, and the appropriate statistical tests (ANOVA and Newman-Keuls) were completed. The tube formation assay was replicated three times for both HUVECs and HCAECs. The assay was also repeated with cardiac HMVECs.
# HMVECs = test: Matrigel tube formation assay (cardiac HMVECs); assay type: cell-based, human; conditions: 1, 10, 100 μM, 4 h
# Procedure: as §1
# HUVECs [2] = test: Live/Dead cell viability assay; assay type: cell-based; conditions: HUVECs, 1, 10, 100 μM, 4 h
# Procedure: A Live/Dead assay (Invitrogen, Eugene, Oreg.) was utilized to investigate the effect of SsnB on cell viability. The Matrigel tube formation experiment was repeated with HUVECs in chamber slides at a concentration of 20,000 cells per well. The cells were treated with SsnB (1, 10, or 100 μM) or Vehicle Control (0.1% DMSO) as described above. After four hours of incubation, the slides were removed. A chamber slide containing HUVECs treated with 70% methanol for 30 minutes was used as a control for dead cell staining. The slides were aspirated and washed with PBS, and EthD-1 and calcein AM were added to each well. The plates were incubated in the dark, and images were taken with a light microscope at 10× magnification.
# HUVECs [3] = test: Microarray gene expression analysis (HUVECs); assay type: cell-based, human
# Procedure: Confluent plates (100×20 mm polystyrene, tissue culture-treated petri plates coated with 0.1% gelatin, 75% confluent) of HUVECs and HCAECs (four plates for HUVECs, n=2, and six plates for HCAECs, n=3) were chosen for the microarray experiments. Half of the plates received complete growth medium (10% fetal bovine serum with endothelial mitogen) containing vehicle control (0.1% DMSO), and the remaining plates received complete growth medium containing 100 μM SsnB. The plates were incubated for 24 h to allow SsnB to have an effect on cellular gene expression. Following incubation, RNA isolation was completed with the RNeasy Mini kit from Qiagen. The cells were lysed, and RNA was isolated by using the RNeasy spin columns and following the protocol provided by Qiagen. Purified RNA was sent to the Medical University of South Carolina Proteogenomics Facility for microarray analysis. The GeneChip Human Genome U133 Plus 2.0 Array was utilized to track changes in gene expression due to SsnB treatment. Complete data was uploaded to the NCBI Gene Expression Omnibus database (accession number GSE44598).
# Microarray data analysis, including data normalization (robust multi-array average), identification of differentially expressed genes (comparative analyses with dChip software), and heat map construction, was carried out to determine how SsnB affects gene expression and affected pathways (n=2 for HUVECs and n=3 for HCAECs). After a careful analysis of the microarray data, several key genes were chosen for qRT-PCR to verify the gene expression results. The genes were chosen based on the following criteria: fold change ≧2, p<0.05, unpaired t-test with a false discovery rate approximating 0%, appearing in both data sets (HUVECs and HCAECs), and gene function relating to cell proliferation and/or angiogenesis. For qRT-PCR, the expression levels were normalized to the housekeeping gene GAPDH, and RNA levels were compared between groups with the ΔΔCt method.
# [4] = system: Toll-like Receptors 2 and 4 (TLR2 and TLR4); conditions: mouse and human macrophages, prior research; cited from earlier work
# [5] = HUVECs, 100 μM SsnB vs vehicle control, 24 h
# [6] = microarray data, cell type not specified
smiles,measurement,setting,value
"O=c1occ2c3c(ccc(O)c13)Oc1ccc(O)cc1-2 [SsnB, Sparstolonin B]",HUVEC tube formation,HUVECs [1],dose-dependent inhibition
same,cardiac HMVEC tube formation,HMVECs,dose-dependent inhibition
same,cell viability (live/dead assay),HUVECs [2],no effect on cell viability
same,ALDH3A1 Microarray Fold change value,HUVECs [3]; [5],7.7
same,ANLN Microarray Fold change value,HUVECs [3]; [5],0.09
same,CCNB1 Microarray Fold change value,HUVECs [3]; [5],0.19
same,CCNE2 Microarray Fold change value,HUVECs [3]; [5],0.24
same,CDC2 Microarray Fold change value,HUVECs [3]; [5],0.08
same,CDC6 Microarray Fold change value,HUVECs [3]; [5],0.23
same,CDKN3 Microarray Fold change value,HUVECs [3]; [5],0.19
same,DIAPH3 Microarray Fold change value,HUVECs [3]; [5],0.34
same,HMMR Microarray Fold change value,HUVECs [3]; [5],0.11
same,KITLG Microarray Fold change value,HUVECs [3]; [5],6.2
same,number of differentially expressed genes in response to SsnB exposure,"HUVECs [3]; HUVECs, 100 μM, 24 h, fold change ≧2, p<0.05",916 genes
same,KIF18A expression in microarray data,HUVECs [3]; [6],downregulated
same,TACC3 expression in microarray data,HUVECs [3]; [6],downregulated
same,aurora kinases (AURKA and AURKB) expression in microarray data,HUVECs [3]; [6],downregulated
same,inflammatory responses of macrophages to ligands for TLR2 and TLR4,[4],selectively inhibiting
